{"source": "paper PMC12609579", "about": "“Acute Myeloid Leukemia: A Key Role of DGKα and DGKζ in Cell Viability” (Cells, 2025)", "key": {"THP-1 cells": {"system": "THP-1 cells", "assay": "Annexin V-FITC/7AAD apoptosis/necrosis flow cytometry, THP-1", "assay_type": "cell-based, human", "details": "THP-1, 24 h", "description": "To determine the type of cell death, apoptotic and necrotic cells were detected by flow cytometry using the Apoptosis Detection Kit Annexin V-FITC (Invitrogen, Carlsbad, CA, USA). For each sample, 500,000 cells, pretreated for 24 h, were stained according to manufacturer’s instructions, using 7-aminoactinomycin D (7AAD) instead of propidium iodide. Samples were analyzed on a BD FACS Symphony A5 flow cytometer (Franklin Lakes, NJ, USA) using BD FACSDiva 9.1 software. Data were gated based on FSC-A vs. FSC-H to exclude cell doublets and FSC-A vs. SSC-A to exclude debris. Different populations were identified as: live (Annexin V− and 7AAD−), necrotic (Annexin− and 7AAD+), early apoptotic (Annexin V+ and 7AAD−) and late apoptotic (Annexin+ and 7AAD+). Data are shown as mean ± SD of at least three independent experiments analyzed by GraphPad Prism 10 (control vs. [inhibitor])."}, "Kasumi-1 [1]": {"system": "Kasumi-1", "parameters": "method as in PMID 37392305", "details": "read-out: IC50 (cytotoxic effects), cited from earlier work"}, "[2]": {"system": "bone marrow mononuclear cells from primary AML samples", "parameters": "method as in PMID 37392305", "details": "40 μM; cited from earlier work"}, "Kasumi-1 [3]": {"system": "Kasumi-1", "parameters": "method as in PMID 37392305", "details": "xenograft mouse models injected with Kasumi-1; cited from earlier work"}, "[4]": {"details": "concentration close to IC50, representative plot"}}, "note": "Like-named read-outs stand apart in the source and are kept apart here.", "data": [{"compound": "Cc1nc2sccn2c(=O)c1CCN1CCC(=C(c2ccc(F)cc2)c2ccc(F)cc2)CC1", "note": "[ritanserin]", "values": [{"measurement": "Early apoptotic (Annexin V+ 7AAD-)", "setting": "THP-1 cells; [4]", "value": 14.4, "unit": "%"}, {"measurement": "Late apoptotic (Annexin+ 7AAD+)", "setting": "THP-1 cells; [4]", "value": 2.2, "unit": "%"}, {"measurement": "Live cells (Annexin V- 7AAD-)", "setting": "THP-1 cells; [4]", "value": 83.2, "unit": "%"}, {"measurement": "Necrotic (Annexin- 7AAD+)", "setting": "THP-1 cells; [4]", "value": 0.2, "unit": "%"}, {"measurement": "modality of cell death", "setting": "THP-1 cells; concentration near IC50", "value": "early apoptosis"}, {"measurement": "IC50", "setting": "Kasumi-1 [1]; Kasumi-1, 24 h", "value": 51, "unit": "µM"}, {"measurement": "IC50", "setting": "Kasumi-1 [1]; Kasumi-1, 72 h", "value": 30, "unit": "µM"}, {"measurement": "apoptosis, % of cells", "setting": "[2]", "value": "up to 70%"}, {"measurement": "survival", "setting": "Kasumi-1 [3]", "value": "improved survival"}, {"measurement": "tumor burden", "setting": "Kasumi-1 [3]", "value": "significant reduction"}]}]}
